As a reminder, the IC50 is the concentration that inhibits the measured activity by half. What is called EC50 is the concentration needed to bring the measured effect to its halfway point.

The source of these data is US7473704B2, “Cyclohexyl prostaglandin analogs as EP4-receptor agonists” (Allergan, Inc., priority 2003, dated 2009).

In assay [1] the target is T1, human EP4 receptor (Homo sapiens, UniProt P35408).
T1 construct: expressed in transfected cells
Put plainly: Recombinant human EP4 receptor binding assay (HEK-293-EBNA stable transfectants). Particulars: read-out: Binding Data (IC50 in nM) hEP4. As for the experimental part: (§1) Human Recombinant EP4 Receptor: Stable Transfectants.
(§2) Plasmids encoding the human EP4 receptor were prepared by cloning the respective coding sequences into the eukaryotic expression vector pCEP4 (Invitrogen). The pCEP4 vector contains an Epstein Barr virus (EBV) origin of replication, which permits episomal replication in primate cell lines expressing EBV nuclear antigen (EBNA-1). It also contains a hygromycin resistance gene that is used for eukaryotic selection. The cells employed for stable transfection were human embryonic kidney cells (HEK-293) that were transfected with and express the EBNA-1 protein. These HEK-293-EBNA cells (Invitrogen) were grown in medium containing Geneticin (G418) to maintain expression of the EBNA-1 protein. HEK-293 cells were grown in DMEM with 10% fetal bovine serum (FBS), 250 μg ml^−1 G418 (Life Technologies) and 200 μg ml^−1 gentamicin or penicillin/streptomycin.
(§3) For transfection, the cells were grown to 50-60% confluency on 10 cm plates. The plasmid pCEP4 incorporating cDNA inserts for the respective human prostanoid receptor (20 μg) was added to 500 μl of 250 mM CaCl2. HEPES buffered saline×2 (2×HBS, 280 mM NaCl, 20 mM HEPES acid, 1.5 mM Na2 HPO4, pH 7.05-7.12) was then added dropwise to a total of 500 μl, with continuous vortexing at room temperature. After 30 min, 9 ml DMEM were added to the mixture. The DNA/DMEM/calcium phosphate mixture was then added to the cells, which had been previously rinsed with 10 ml PBS. The cells were then incubated for 5 hr at 37° C. in humidified 95% air/5% CO2. The calcium phosphate solution was then removed and the cells were treated with 10% glycerol in DMEM for 2 min. The glycerol solution was then replaced by DMEM with 10% FBS. The cells were incubated overnight and the medium was replaced by DMEM/10% FBS containing 250 μg ml^−1 G418 and penicillin/streptomycin. The following day hygromycin B was added to a final concentration of 200 μg ml^−1.
(§4) Ten days after transfection, hygromycin B resistant clones were individually selected and transferred to a separate well on a 24 well plate. At confluence each clone was transferred to one well of a 6 well plate, and then expanded in a 10 cm dish. Cells were maintained under continuous hygromycin selection until use.
(§5) Certain of the above compounds were tested for activity in the recombinant human EP4 receptor assay described above and the results are reported in Table 1, below.

The target of assay [2] is T1, human EP4 receptor. The assay can be described thus: Recombinant human EP4 receptor functional assay (HEK-293-EBNA stable transfectants). Format: cell-based. Particulars: read-out: Functional Data (EC50 in nM) hEP4. How it is done:
as §1, §2, §3, §4, §5

T1 sequence (P35408 whole entry): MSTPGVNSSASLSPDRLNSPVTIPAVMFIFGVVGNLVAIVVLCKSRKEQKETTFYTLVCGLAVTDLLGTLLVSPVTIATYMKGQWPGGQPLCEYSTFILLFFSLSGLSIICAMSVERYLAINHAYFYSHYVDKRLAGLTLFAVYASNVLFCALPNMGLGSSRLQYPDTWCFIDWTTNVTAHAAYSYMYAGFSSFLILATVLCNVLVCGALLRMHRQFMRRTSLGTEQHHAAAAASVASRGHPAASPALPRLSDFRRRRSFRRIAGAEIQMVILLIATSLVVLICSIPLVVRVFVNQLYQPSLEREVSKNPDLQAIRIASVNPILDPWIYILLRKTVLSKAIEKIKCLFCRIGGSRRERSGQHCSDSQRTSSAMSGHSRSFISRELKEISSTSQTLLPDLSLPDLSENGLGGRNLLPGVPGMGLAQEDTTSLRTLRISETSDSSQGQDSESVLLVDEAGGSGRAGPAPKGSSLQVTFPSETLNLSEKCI

On to `O=C(O)CCC/C=C\C[C@H]1C(=O)CC[C@@H](O)[C@@H]1/C=C/C(O)CCc1sc2ccccc2c1Cl` (stereo partly drawn) [1 high Rf], for which, in assay [1], the IC50 is 200 nM. For the same molecule, the EC50 in assay [2] worked out at 136 nM.
Take `O=C(O)CCC/C=C\C[C@H]1C(=O)CC[C@@H](O)[C@@H]1/C=C/C(O)CCc1sc2ccccc2c1Cl` (stereo partly drawn) [1 low Rf]: the IC50 in assay [1] is 400 nM. For the same molecule, the EC50 in assay [2] was 67 nM.
For `O=C(O)CCC/C=C\C[C@H]1C(=O)CC[C@@H](O)[C@@H]1/C=C/C(O)Cc1ccccc1` (stereo partly drawn) [Example 2, (Z)-7-[(1R,2R,3R)-3-Hydroxy-2-((E)-3-hydroxy-4-phenyl-but-1-enyl)-6-oxo-cyclohexyl]-hept-5-enoic acid] the same measures were 100 nM and 11 nM.
For `O=C(O)CCC/C=C\C[C@H]1C(=O)CC[C@@H](O)[C@@H]1/C=C/C(O)Cc1csc2ccccc12` (stereo partly drawn) [Example 3, (Z)-7-[(1R,2R,3R)-2-((E)-4-Benzo[b]thiophen-3-yl-3-hydroxy-but-1-enyl)-3-hydroxy-6-oxo-cyclohexyl]-hept-5-enoic acid] the same measures were 1300 nM and 168 nM.
For `O=C(O)CCCC#CC[C@H]1C(=O)CC[C@@H](O)[C@@H]1/C=C/C(O)CCc1ccccc1` (stereo partly drawn) [Example 4, 7-[(1R,2R,3R)-3-Hydroxy-2-((E)-3-hydroxy-5-phenyl-pent-1-enyl)-6-oxo-cyclohexyl]-hept-5-ynoic acid] the same measures were 1000 nM and 214 nM.
As to `O=C(O)CCC/C=C\C[C@@H]1[C@@H](/C=C/C(O)CCc2sc3ccccc3c2Cl)[C@H](O)CC[C@H]1Cl` (stereo partly drawn) [Example 6, (Z)-7-{(1R,2R,3R,6R)-6-Chloro-2-[(E)-5-(3-chloro-benzo[b]thiophen-2-yl)-3-hydroxy-pent-1-enyl]-3-hydroxy-cyclohexyl)-hept-5-enoic acid], the IC50 in assay [1] was determined as 35 nM. Also, in assay [2], the EC50 turned out to be 314 nM.
The corresponding values for `O=C(O)CCCC#CC[C@H]1C(=O)CC[C@@H](O)[C@@H]1/C=C/C(O)Cc1csc2ccccc12` (stereo partly drawn) [Example 8, 7-[(1R,2R,3R)-2-((E)-4-Benzo[b]thiophen-3-yl-3-hydroxy-but-1-enyl)-3-hydroxy-6-oxo-cyclohexyl]-hept-5-ynoic acid] are 3500 nM and 362 nM.
The corresponding values for `CCCCC[C@H](O)CC[C@H]1[C@H](O)CCC(=O)[C@@H]1CCCCCCC(=O)O` [Example 9, 7-[(1R,2R,3R)-3-Hydroxy-2-((S)-3-hydroxy-octyl)-6-oxo-cyclohexyl]-heptanoic acid] are 600 nM and 387 nM.
Turning to `O=C(O)CCC/C=C\C[C@H]1C(=O)C=CC[C@@H]1/C=C/C(O)CCc1sc2ccccc2c1Cl` (stereo partly drawn) [Example 10, (Z)-7-{(1R,6R)-6-[(E)-5-(3-Chloro-benzo[b]thiophen-2-yl)-3-hydroxy-pent-1-enyl]-2-oxo-cyclohex-3-enyl}-hept-5-enoic acid], in assay [1], the IC50 turned out to be 1800 nM. Besides, the EC50 in assay [2] is 456 nM.
